Measured values reported in publication PMC7016953 (Cells, 2020).

How the values were obtained:
hTRPC7-YFP = tested on: T1, hTRPC7-YFP; assay: Fluo-4 Ca2+ influx assay in HEK293 cells stably expressing TRPC7; assay type: cell-based, human; settings: fluo-4 concentration response analysis
T1 construct: expressed in transfected cells

parental HEK293 cells = assay: [Ca2+]i response in un-transfected parental HEK293 cells; assay type: cell-based, human
Description: All fluorometric Ca^2+ assays were done in (4-(2-hydroxyethyl)-1-piperazineethanesulfonic acid) (HEPES)-buffered saline (HBS), containing 132 mM NaCl, 6 mM KCl, 1 mM MgCl2, 1 mM CaCl2, 5.5 mM D-glucose, 10 mM HEPES, and 0.035% bovine serum albumin (BSA) adjusted to pH 7.4 with NaOH. For measurements in Ca^2+-free bath solutions, a modified HBS without CaCl2 was supplemented with 200 µM ethylene glycol-bis(β-aminoethyl ether)-N,N,N′,N′-tetraacetic acid (EGTA).
The primary compound screen and the generation of concentration response curves in HEK293 cells or in PC12 cells were performed by using a custom-made fluorescence plate imager built into a robotic liquid handling station equipped with a 96-tip multichannel head (Freedom Evo 150, Tecan, Männedorf, Switzerland) as described previously. To this end, trypsinized cell suspensions were loaded with 4 µM fluo-4/AM (Invitrogen, Thermo Fisher Scientific, Waltham, MA, U.S.A.) in cell culture medium for 30 min at 37 °C. After brief centrifugation, cells were resuspended in HBS and dispensed into black pigmented, clear-bottom 384-well plates (Greiner µClear, Frickenhausen, Germany). Plates were mounted on the imager, and fluorescence signals were recorded with a cooled Zyla 5.5 camera (Andor, Belfast, UK) through a 515 nm long pass filter. The image acquisition was controlled by the µManager software (http://micro-manager.org), and excitation with a LED array (470 nm) was synchronized by the camera trigger output. After baseline recording for about 60 s, the compound libraries or serial dilutions of activators or inhibitors were added to the cells by the liquid handling device. When inhibitory potencies were evaluated, a second pipetting step with the respective reference agonist was performed. Fluorescence intensities were calculated from image stacks for each well with ImageJ (National Institutes of Health, Bethesda, MD, U.S.A.), corrected for background signals, and normalized to the initial intensities (F/F0). […]

hTRPM2 = tested on: T2, hTRPM2; assay: Selectivity profiling, fluo-4 [Ca2+]i response, TRPM2; assay type: cell-based, human; settings: 100 µM
T2 construct: expressed in transfected cells
Description: (§1) Human embryonic kidney 293 (HEK293) cells were stably transfected with expression plasmids that encode hTRPC3-YFP, hTRPC6-YFP, hTRPC7-YFP, mTRPC4ß-YFP, rTRPV1-CFP, rTRPV2-YFP, rTRPV3-YFP, mTRPV4-YFP, or hTRPM2 as previously described. Cell lines were cultured in Earle’s minimum essential medium (MEM; Sigma, Munich, Germany), supplemented with 10% fetal calf serum (Gibco Thermo Fisher Scientific, Darmstadt, Germany), 2 mM L-glutamine, and required concentrations of geneticin in a range of 0.4–1 mg/mL. A HEK293mTRPC5-YFP cell line was maintained and induced as described before. […] For electrophysiological and single cell [Ca^2+]i imaging experiments, PC12 cells were plated onto 25 mm poly-L-lysine-coated glass coverslips and measured 24–48 h after seeding. […]
(§2) The primary compound screen and the generation of concentration response curves in HEK293 cells or in PC12 cells were performed by using a custom-made fluorescence plate imager built into a robotic liquid handling station equipped with a 96-tip multichannel head (Freedom Evo 150, Tecan, Männedorf, Switzerland) as described previously. […] Plates were mounted on the imager, and fluorescence signals were recorded with a cooled Zyla 5.5 camera (Andor, Belfast, UK) through a 515 nm long pass filter. […] When inhibitory potencies were evaluated, a second pipetting step with the respective reference agonist was performed. […]

mTRPV4-YFP = tested on: T3, mTRPV4-YFP; assay: Selectivity profiling, fluo-4 [Ca2+]i response, TRPV4; assay type: cell-based, mouse; settings: 100 µM
T3 construct: expressed in transfected cells
Description: as §1, §2

[1] = tested on: TRPC4, TRPC5, TRPA1, TRPM2, TRPM3, TRPM8, TRPV1, TRPV2, TRPV4, or TRPV4; assay: Selectivity profiling, inhibition of activator responses in the TRP channel panel; assay type: cell-based; settings: 100 µM, subsequent stimulation with channel-specific activators
Description: as §1, §2

mouse TRPC3 ortholog = tested on: T4, mouse TRPC3 ortholog; assay: Single-cell [Ca2+]i analysis, fura-2-loaded HEK293 cells transiently overexpressing mouse TRPC3; assay type: cell-based; settings: 50 µM, mean and S.D., n = 215 single cells; basal 311 ± 134 nM
T4 construct: expressed in transfected cells; host or cells: HEK293, transient
Description: (§3) The microfluorometric single-cell [Ca^2+]i analysis was performed on an inverted epifluorescence microscope (Carl Zeiss, Jena, Germany) and calibrated as described. Cells were grown on 25 mm coverslips and loaded with 4 µM fura-2/AM (AAT Bioquest, Sunnyvale, CA, U.S.A.) in HBS containing 0.2% BSA for 30 min at 37 °C. After gently rinsing the coverslips with HBS, coverslips were mounted in a bath chamber and superfused with HBS containing 0.035% BSA.

[2] = tested on: PC12 cells (native TRPC3 channel complexes); assay: [Ca2+]i analysis in fura-2-loaded PC12 cells; assay type: cell-based, rat
Description: Human embryonic kidney 293 (HEK293) cells were stably transfected with expression plasmids that encode hTRPC3-YFP, hTRPC6-YFP, hTRPC7-YFP, mTRPC4ß-YFP, rTRPV1-CFP, rTRPV2-YFP, rTRPV3-YFP, mTRPV4-YFP, or hTRPM2 as previously described. Cell lines were cultured in Earle’s minimum essential medium (MEM; Sigma, Munich, Germany), supplemented with 10% fetal calf serum (Gibco Thermo Fisher Scientific, Darmstadt, Germany), 2 mM L-glutamine, and required concentrations of geneticin in a range of 0.4–1 mg/mL. A HEK293mTRPC5-YFP cell line was maintained and induced as described before. The HEK293mTRPM3α2 cells (expressing the Ca^2+-permeable main variant of mouse TRPM3) were kindly provided by Johannes Oberwinkler (Marburg, Germany), the HEK293hTRPA1 cells that constitutively overexpress the human TRPA1 were from Dr. Natalie Tigue and Dr. Steve Moore (GlaxoSmithKline, Harlow, UK). With the exception of mTRPC5-YFP, all cell lines constitutively overexpress the respective TRP channel under the control of a cytomegalovirus (CMV) promoter. A HEK cell line stably expressing the human protein kinase C (PKC) ε C-terminally tagged with YFP [13] was generated and maintained in the same medium as HEKTRPC3-YFP cells. PC12 cells were cultured in RPMI-1640 (Sigma, Munich, Germany) with 10% fetal calf serum, 2 mM L-glutamine, 100 U/mL penicillin, and 0.1 mg/mL streptomycin. For electrophysiological and single cell [Ca^2+]i imaging experiments, PC12 cells were plated onto 25 mm poly-L-lysine-coated glass coverslips and measured 24–48 h after seeding. All cells were maintained at 37 °C in a 5% CO2-aerated, humidified atmosphere.
as §3
Figure 7 Expression of TRPC3 and functional responses to TRPC activators in PC12 rat pheochromocytoma cells. (A) Immunofluorescence analysis of TRPC3 (green channel) and tyrosine hydroxylase (TH; red channel) expression in PC12 cells. Nuclei were counterstained with DAPI (blue channel). Bars: 20 µm scale. Time course of the [Ca^2+]i (B) and averaged basal and peak [Ca^2+]i values (C) were recorded by microfluorometric analysis in fura-2-loaded PC12 cells grown on glass coverslips. […] Data represent averages (B) or means and S.D. (C) of 6–12 imaging experiments for each compound. Significant increases compared to the respective basal values are indicated (#: p < 0.05; Student´s t-test for paired data).

## C[C@@H]1CC[C@H]2[C@@H](C)C(=O)O[C@@H]3O[C@@]4(C)CC[C@@H]1[C@]32OO4 [artemisinin]
hTRPC7-YFP
  effect on TRPC7: weakly activated
Parental HEK293 cells; concentrations up to 50 µM
  response of un-transfected parental HEK293 cells: no response
Parental HEK293 cells; single-cell analysis, followed by carbachol
  [Ca2+]i signals in parental HEK293 cells: does not induce [Ca^2+]i signals
hTRPM2
  [Ca2+]i response, TRPM2: none of the cell lines responded
mTRPV4-YFP
  [Ca2+]i response, TRPV4: none of the cell lines responded
[1]
  inhibition of the investigated channels compared to the solvent control: did not observe a significant inhibition
Mouse TRPC3 ortholog
  [Ca2+]i reached after stimulation: 1140 ± 635 nM
[2]; artemisinin 50 or 100 µM, 6–12 experiments for each compound
  [Ca2+]i in fura 2-loaded PC12 cells: significant increases in [Ca^2+]i
[2]; neuronal growth factor treatment
  response to artemisinin after neuronal growth factor treatment of PC12 cells: lower response
